# Measured values from publication PMC7614683, “A small molecule PI3Kα activator for cardioprotection and neuroregeneration” (Nature, 2023).
# Target: T1, full length p110α/p85α (Homo sapiens, UniProt P42336)
# T1 construct: Full-length human p110α was expressed either in a complex with full-length human p85α (for HTS, biochemistry and HDX-MS); 6xHis tag followed by TEV protease site (N); host or cells: Spodoptera frugiperda Sf9, baculovirus
# Experiment: HDX-MS
# Format: binding
# Method: Sample preparation: HDX-MS experiments were carried out as described previously. […] In total, three biological replicates, i.e. three separate protein preparations, each with exchange experiments carried out in triplicate were conducted. Data presented in the manuscript is a single biological replicate. Data acquisition and analysis were as follows: Each sample was thawed and injected onto an M-Class Acquity UPLC with HDX Technology (Waters) kept at 0.1°C. Proteins were digested in-line using an Enzymate Pepsin Column (Waters, #186007233) at 15°C for 2 min at 200 μl/min. Peptic peptides were then eluted onto an Acquity UPLC BEH C18 Column (Waters, #186002346) equilibrated in Pepsin-A buffer (0.1% formic acid) and separated using a 5-35% gradient of Pepsin-B buffer (0.1% formic acid, 99% acetonitrile) over 7 min at a flowrate of 40 μl/min. Data were collected on a Waters Cyclic IMS, with an electrospray ionisation source, from 50-2000 m/z. Data were collected in the HDMS^E mode. A single pass of the cyclic IMS was conducted. A “blank” sample of protein dilution buffer with quench was run between samples, and carry-over of peptides was routinely monitored. Five replicates were used to identify non-deuterated peptides. Criteria used to include peptides in the HDX-MS dataset were: minimum intensity 5000, minimum sequence length 5, maximum sequence length 25, a minimum of 3 fragment ions, a minimum of 0.1 products per amino acid, a minimum score of 6.62, a maximum MH+ Error of 10 ppm, identification in at least two datasets with a retention time RSD of less than 10%. Data was analysed using Protein Lynx Global Server (Waters) and DynamX (Waters). All peptides were manually inspected for EX1 kinetics and sufficient quality of the peptide envelope. Data quality, experiment design, and reporting of data meets the criteria as determined by the HDX-MS community. Uptake files were created using Baryonyx. Data are available via ProteomeXchange with identifier PXD037721.
# [1] = PK3CA_HUMAN peptide 177-186, time point 1 of 5
# [2] = PK3CA_HUMAN peptide 177-186, time point 2 of 5
# [3] = PK3CA_HUMAN peptide 177-186, time point 3 of 5
# [4] = PK3CA_HUMAN peptide 177-186, time point 4 of 5
# [5] = PK3CA_HUMAN peptide 177-186, time point 5 of 5
# [6] = PK3CA_HUMAN peptide 186-202, time point 1 of 5
# [7] = PK3CA_HUMAN peptide 186-202, time point 2 of 5
# [8] = PK3CA_HUMAN peptide 186-202, time point 3 of 5
# [9] = PK3CA_HUMAN peptide 186-202, time point 4 of 5
# [10] = PK3CA_HUMAN peptide 186-202, time point 5 of 5
# [11] = PK3CA_HUMAN peptide 207-219, time point 1 of 5
# [12] = PK3CA_HUMAN peptide 207-219, time point 2 of 5
# [13] = PK3CA_HUMAN peptide 207-219, time point 3 of 5
# [14] = PK3CA_HUMAN peptide 207-219, time point 4 of 5
# [15] = PK3CA_HUMAN peptide 207-219, time point 5 of 5
# [16] = PK3CA_HUMAN peptide 220-237, time point 1 of 5
# [17] = PK3CA_HUMAN peptide 220-237, time point 2 of 5
# [18] = PK3CA_HUMAN peptide 220-237, time point 3 of 5
# [19] = PK3CA_HUMAN peptide 220-237, time point 4 of 5
# [20] = PK3CA_HUMAN peptide 220-237, time point 5 of 5
# [21] = PK3CA_HUMAN peptide 224-238, time point 1 of 5
# [22] = PK3CA_HUMAN peptide 224-238, time point 2 of 5
# [23] = PK3CA_HUMAN peptide 224-238, time point 3 of 5
# [24] = PK3CA_HUMAN peptide 224-238, time point 4 of 5
# [25] = PK3CA_HUMAN peptide 224-238, time point 5 of 5
# [26] = PK3CA_HUMAN peptide 238-250, time point 1 of 5
# [27] = PK3CA_HUMAN peptide 238-250, time point 2 of 5
# [28] = PK3CA_HUMAN peptide 238-250, time point 3 of 5
# [29] = PK3CA_HUMAN peptide 238-250, time point 4 of 5
# [30] = PK3CA_HUMAN peptide 238-250, time point 5 of 5
# [31] = PK3CA_HUMAN peptide 238-259, time point 1 of 5
# [32] = PK3CA_HUMAN peptide 238-259, time point 2 of 5
# [33] = PK3CA_HUMAN peptide 238-259, time point 3 of 5
# [34] = PK3CA_HUMAN peptide 238-259, time point 4 of 5
# [35] = PK3CA_HUMAN peptide 238-259, time point 5 of 5
# [36] = PK3CA_HUMAN peptide 241-250, time point 1 of 5
# [37] = PK3CA_HUMAN peptide 241-250, time point 2 of 5
# T1 sequence (P42336 whole entry): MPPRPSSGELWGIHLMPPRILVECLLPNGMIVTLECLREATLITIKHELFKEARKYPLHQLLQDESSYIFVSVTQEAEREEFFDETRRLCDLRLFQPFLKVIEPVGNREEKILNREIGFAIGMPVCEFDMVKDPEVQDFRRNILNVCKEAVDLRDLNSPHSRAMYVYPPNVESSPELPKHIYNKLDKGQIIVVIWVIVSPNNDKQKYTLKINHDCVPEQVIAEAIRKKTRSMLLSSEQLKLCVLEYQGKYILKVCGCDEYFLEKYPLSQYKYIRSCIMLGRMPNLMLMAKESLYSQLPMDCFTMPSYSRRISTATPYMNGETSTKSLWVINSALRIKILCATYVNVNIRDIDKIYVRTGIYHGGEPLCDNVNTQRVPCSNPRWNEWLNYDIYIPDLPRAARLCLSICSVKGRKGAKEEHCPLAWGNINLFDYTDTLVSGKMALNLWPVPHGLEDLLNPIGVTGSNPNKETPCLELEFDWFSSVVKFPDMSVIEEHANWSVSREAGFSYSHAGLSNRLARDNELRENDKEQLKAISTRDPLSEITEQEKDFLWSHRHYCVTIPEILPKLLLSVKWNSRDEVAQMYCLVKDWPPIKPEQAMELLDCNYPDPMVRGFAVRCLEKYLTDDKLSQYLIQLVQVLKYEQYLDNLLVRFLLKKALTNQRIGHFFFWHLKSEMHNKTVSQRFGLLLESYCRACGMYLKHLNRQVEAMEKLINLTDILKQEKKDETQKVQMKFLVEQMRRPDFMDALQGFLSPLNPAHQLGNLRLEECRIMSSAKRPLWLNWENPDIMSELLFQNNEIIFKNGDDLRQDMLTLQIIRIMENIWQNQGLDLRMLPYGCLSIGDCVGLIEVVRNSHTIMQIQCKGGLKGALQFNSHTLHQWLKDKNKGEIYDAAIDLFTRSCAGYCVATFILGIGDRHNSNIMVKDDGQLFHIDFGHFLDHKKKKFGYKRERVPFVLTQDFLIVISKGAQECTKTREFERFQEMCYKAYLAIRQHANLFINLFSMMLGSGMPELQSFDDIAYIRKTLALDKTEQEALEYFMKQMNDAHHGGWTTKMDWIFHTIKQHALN
# T1 sequence (P27986 whole entry partner): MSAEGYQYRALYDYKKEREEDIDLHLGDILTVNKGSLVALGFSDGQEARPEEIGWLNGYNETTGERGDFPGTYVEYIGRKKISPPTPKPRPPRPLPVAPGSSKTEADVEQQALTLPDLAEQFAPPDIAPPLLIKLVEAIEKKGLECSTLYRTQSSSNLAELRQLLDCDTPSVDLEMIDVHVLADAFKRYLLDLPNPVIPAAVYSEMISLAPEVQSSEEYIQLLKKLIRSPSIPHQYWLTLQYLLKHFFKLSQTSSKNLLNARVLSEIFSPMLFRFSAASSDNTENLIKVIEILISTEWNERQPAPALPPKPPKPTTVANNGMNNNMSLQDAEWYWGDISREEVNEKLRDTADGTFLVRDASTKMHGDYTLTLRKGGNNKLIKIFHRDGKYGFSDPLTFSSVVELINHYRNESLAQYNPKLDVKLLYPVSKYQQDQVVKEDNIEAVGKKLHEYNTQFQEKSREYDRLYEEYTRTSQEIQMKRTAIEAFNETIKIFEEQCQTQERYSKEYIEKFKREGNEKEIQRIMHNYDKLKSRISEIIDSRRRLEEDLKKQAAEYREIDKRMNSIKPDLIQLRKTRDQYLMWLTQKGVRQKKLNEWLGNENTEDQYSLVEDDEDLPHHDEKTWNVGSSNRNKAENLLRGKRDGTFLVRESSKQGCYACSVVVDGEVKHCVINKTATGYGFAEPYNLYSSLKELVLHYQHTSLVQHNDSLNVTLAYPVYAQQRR
compound,measurement,setting,value
CCN1CCN(c2ccc(Nc3cc(Nc4cccc5c4N(C(C)=O)CC5)ccn3)cc2)CC1 [Compound 1938],changes in HDX-MS protection of PI3Kα,250 μM 1938 or 5 μM BYL719,protection of a region in the C-terminus of the kinase domain consisting of amino acids (AA) 1002-1016 of p110α
same,HDX difference (%D),[1],-1.1%
same,HDX difference (Da),[1],-0.10 Da
same,HDX difference (%D),[2],0.188%
same,HDX difference (Da),[2],0.0169 Da
same,HDX difference (%D),[3],0.0654%
same,HDX difference (Da),[3],0.00589 Da
same,HDX difference (%D),[4],-0.325%
same,HDX difference (Da),[4],-0.03 Da
same,HDX difference (%D),[5],-0.186%
same,HDX difference (Da),[5],-0.0168 Da
same,HDX difference (%D),[6],-0.741%
same,HDX difference (Da),[6],-0.10 Da
same,HDX difference (%D),[7],0.268%
same,HDX difference (Da),[7],0.0349 Da
same,HDX difference (%D),[8],0.253%
same,HDX difference (Da),[8],0.0328 Da
same,HDX difference (%D),[9],-0.11%
same,HDX difference (Da),[9],-0.0143 Da
same,HDX difference (%D),[10],-0.0482%
same,HDX difference (Da),[10],-0.00626 Da
same,HDX difference (%D),[11],-0.6%
same,HDX difference (Da),[11],-0.07 Da
same,HDX difference (%D),[12],0.1%
same,HDX difference (Da),[12],0.0108 Da
same,HDX difference (%D),[13],0.0043%
same,HDX difference (Da),[13],0.000474 Da
same,HDX difference (%D),[14],-0.136%
same,HDX difference (Da),[14],-0.0149 Da
same,HDX difference (%D),[15],-0.4%
same,HDX difference (Da),[15],-0.0435 Da
same,HDX difference (%D),[16],-0.3%
same,HDX difference (Da),[16],-0.0451 Da
same,HDX difference (%D),[17],0.0936%
same,HDX difference (Da),[17],0.014 Da
same,HDX difference (%D),[18],0.319%
same,HDX difference (Da),[18],0.05 Da
same,HDX difference (%D),[19],-0.0933%
same,HDX difference (Da),[19],-0.014 Da
same,HDX difference (%D),[20],-0.152%
same,HDX difference (Da),[20],-0.0229 Da
same,HDX difference (%D),[21],-0.8%
same,HDX difference (Da),[21],-0.0951 Da
same,HDX difference (%D),[22],0.43%
same,HDX difference (Da),[22],0.05 Da
same,HDX difference (%D),[23],0.056%
same,HDX difference (Da),[23],0.00672 Da
same,HDX difference (%D),[24],0.37%
same,HDX difference (Da),[24],0.0444 Da
same,HDX difference (%D),[25],0.9%
same,HDX difference (Da),[25],0.11 Da
same,HDX difference (%D),[26],-0.317%
same,HDX difference (Da),[26],-0.038 Da
same,HDX difference (%D),[27],0.158%
same,HDX difference (Da),[27],0.019 Da
same,HDX difference (%D),[28],0.185%
same,HDX difference (Da),[28],0.0222 Da
same,HDX difference (%D),[29],-0.357%
same,HDX difference (Da),[29],-0.0429 Da
same,HDX difference (%D),[30],0.02%
same,HDX difference (Da),[30],0.00239 Da
same,HDX difference (%D),[31],-0.7%
same,HDX difference (Da),[31],-0.15 Da
same,HDX difference (%D),[32],0.262%
same,HDX difference (Da),[32],0.0549 Da
same,HDX difference (%D),[33],0.265%
same,HDX difference (Da),[33],0.0556 Da
same,HDX difference (%D),[34],-0.134%
same,HDX difference (Da),[34],-0.0282 Da
same,HDX difference (%D),[35],-0.22%
same,HDX difference (Da),[35],-0.0463 Da
same,HDX difference (%D),[36],-0.43%
same,HDX difference (Da),[36],-0.04 Da
same,HDX difference (%D),[37],0.2%
same,HDX difference (Da),[37],0.0181 Da
